Each structure is given as a SMILES string.

From patent US11230540B2, “Substituted triazole derivatives and uses thereof” (Bayer Pharma Aktiengesellschaft, priority 2017, dated 2022) come the findings set out here.

One assay addresses T1, human V1a receptor (Homo sapiens, UniProt P37288).
T1 construct: expressed in transfected cells; host or cells: CHO K1 (Chinese hamster ovary), also stably transfected with a modified aequorin
Briefly: Cellular in vitro assay for vasopressin receptor activity, V1a receptor cell line (aequorin luminescence). The class given is cell-based. The conditions noted are these: for IC50: CHO cell line transfected with human V1a receptor, [Arg8]-vasopressin at EC50 concentration, read-out: IC50 hV1a; for ratio IC50 hV2/hV1a: selectivity ratio of the IC50 values hV2/hV1a. The procedure:
(§1) B-1. Cellular In Vitro Assay for Determining Vasopressin Receptor Activity
(§2) The identification of agonists and antagonists of the V1a and V2 vasopressin receptors from humans, rats and dogs as well as the quantification of the activity of the compounds of the invention is carried out using recombinant cell lines. These cell lines originally derive from a hamster's ovary epithelial cell (Chinese Hamster Ovary, CHO K1, ATCC: American Type Culture Collection, Manassas, Va. 20108, USA). The test cell lines constitutively express the human, rat or dog V1a or V2 receptors. In case of the […] V1a receptors, cells are also stably transfected with a modified form of the calcium-sensitive photoproteins aequorin (human and rat V1a) or obelin (dog V1a), which, after reconstitution with the cofactor coelenterazine, emit light when there are increases in free calcium concentrations [Rizzuto R, Simpson A W, Brini M, Pozzan T, Nature 358, 325-327 (1992); Illarionov B A, Bondar V S, Illarionova V A, Vysotski E S, Gene 153 (2), 273-274 (1995)]. The resulting vasopressin receptor cells react to stimulation of the recombinantly expressed V1a receptors by intracellular release of calcium ions, which can be quantified by the resulting photoprotein luminescence. The Gs-coupled V2 receptors are stably transfected into cell lines expressing the gene for firefly luciferase under control of a CRE-responsible promoter. Activation of V2 receptors induces the activation of the CRE-responsive promoter via cAMP increase, thereby inducing the expression of firefly luciferase. The light emitted by photoproteins of V1a cell lines as well as the light emitted by firefly luciferase of V2 cell lines corresponds to the activation or inhibition of the respective vasopressin receptor. The bioluminescence of the cell lines is detected using a suitable luminometer [Milligan G, Marshall F, Rees S, Trends in Pharmacological Sciences 17, 235-237 (1996)].
Vasopressin V1a Receptor Cell Lines:
On the day before the assay, the cells are plated out in culture medium (DMEM/F12, 2% FCS, 2 mM glutamine, 10 mM HEPES, 5 μg/ml coelenterazine) in 384-well microtiter plates and kept in a cell incubator (96% humidity, 5% v/v CO2, 37° C.). On the day of the assay, test compounds in various concentrations are placed for 10 minutes in the wells of the microtiter plate before the agonist [Arg^8]-vasopressin at EC50 concentration is added. The resulting light signal is measured immediately in a luminometer.
(§3) Table 1A below lists individual IC50 values for the compounds of the invention (including racemic mixtures as well as separated enantiomers) that were obtained from cell lines transfected with the human V1a or V2 receptor: […]

The next assay has as its target T2, human V2 receptor (Homo sapiens, UniProt P30518).
T2 construct: expressed in transfected cells; host or cells: CHO K1 (Chinese hamster ovary) expressing firefly luciferase under a CRE-responsive promoter
Briefly: Cellular in vitro assay for vasopressin receptor activity, V2 receptor cell line (CRE-luciferase). It is filed as cell-based. Particulars: CHO cell line transfected with human V2 receptor; [Arg8]-vasopressin at EC50 concentration; read-out: IC50 hV2. The procedure: as §1, §2
Vasopressin V2 Receptor Cell Lines:
On the day before the assay, the cells are plated out in culture medium (DMEM/F12, 2% FCS, 2 mM glutamine, 10 mM HEPES) in 384-well microtiter plates and kept in a cell incubator (96% humidity, 5% v/v CO2, 37° C.). On the day of the assay, test compounds in various concentrations and the agonist [Arg^8]-vasopressin at EC50 concentration are added together to the wells, and plates are incubated for 3 hours in a cell incubator. Upon addition of the cell lysis reagent Triton™ and the substrate luciferin, luminescence of firefly luciferase is measured in a luminometer.
as §3

T1 sequence (P37288 whole entry): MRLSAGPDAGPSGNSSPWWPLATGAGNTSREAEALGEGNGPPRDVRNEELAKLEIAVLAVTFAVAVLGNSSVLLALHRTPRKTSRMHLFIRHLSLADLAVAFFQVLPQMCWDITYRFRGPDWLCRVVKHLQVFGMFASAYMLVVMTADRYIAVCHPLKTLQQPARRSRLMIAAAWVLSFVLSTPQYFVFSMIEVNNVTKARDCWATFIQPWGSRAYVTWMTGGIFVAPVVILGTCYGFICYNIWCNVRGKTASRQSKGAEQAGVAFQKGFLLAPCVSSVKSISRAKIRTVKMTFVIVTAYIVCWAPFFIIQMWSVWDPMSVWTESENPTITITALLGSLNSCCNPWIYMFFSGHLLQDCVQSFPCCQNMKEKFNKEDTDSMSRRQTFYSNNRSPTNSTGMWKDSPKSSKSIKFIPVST
T2 sequence (P30518 whole entry): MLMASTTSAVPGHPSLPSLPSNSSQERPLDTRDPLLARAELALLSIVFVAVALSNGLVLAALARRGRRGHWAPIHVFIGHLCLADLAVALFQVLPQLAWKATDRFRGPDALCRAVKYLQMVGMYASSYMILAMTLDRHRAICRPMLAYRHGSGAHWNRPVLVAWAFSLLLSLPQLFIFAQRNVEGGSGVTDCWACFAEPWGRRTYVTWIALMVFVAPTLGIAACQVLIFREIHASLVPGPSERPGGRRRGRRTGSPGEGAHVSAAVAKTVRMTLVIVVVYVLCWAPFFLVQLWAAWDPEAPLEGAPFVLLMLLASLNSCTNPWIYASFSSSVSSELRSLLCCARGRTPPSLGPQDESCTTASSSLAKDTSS

Turning to `CC1(CNC(=O)c2nc(Cn3nc(-c4ccc(Cl)cc4)n(C[C@H](O)C(F)(F)F)c3=O)nn2-c2cnccc2Cl)COC1` [Example 8, 3-({3-(4-Chlorophenyl)-5-oxo-4-[(2S)-3,3,3-trifluoro-2-hydroxypropyl]-4,5-dihydro-1H-1,2,4-triazol-1-yl}methyl)-1-(4-chloropyridin-3-yl)-N-[(3-methyloxetan-3-yl)methyl]-1H-1,2,4-triazole-5-carboxamide], at human V1a receptor, the 50% inhibitory concentration (IC50) turned out to be 0.00068 µM and the “ratio IC50 hV2/hV1a” value came to 144.9. For the same compound, on human V2 receptor, the IC50 came out at 0.0985 µM.

As for `NNC(=O)c1nc(Cn2nc(-c3ccc(Cl)cc3)n(C[C@H](O)C(F)(F)F)c2=O)nn1-c1cnccc1Cl` [Example 9, 3-({3-(4-Chlorophenyl)-5-oxo-4-[(2S)-3,3,3-trifluoro-2-hydroxypropyl]-4,5-dihydro-1H-1,2,4-triazol-1-yl}methyl)-1-(4-chloropyridin-3-yl)-1H-1,2,4-triazole-5-carbohydrazide], the IC50 at human V1a receptor was found to be 0.0029 µM; at human V2 receptor it was 0.148 µM. In addition, the “ratio IC50 hV2/hV1a” value at human V1a receptor is given as 51.1.

On to `NNC(=O)c1nc(Cn2nc(-c3ccc(Cl)cc3)n(C[C@H](O)C(F)(F)F)c2=O)nn1-c1ncccc1Cl` [Example 10, 3-({3-(4-Chlorophenyl)-5-oxo-4-[(2S)-3,3,3-trifluoro-2-hydroxypropyl]-4,5-dihydro-1H-1,2,4-triazol-1-yl}methyl)-1-(3-chloropyridin-2-yl)-1H-1,2,4-triazole-5-carbohydrazide], for which, at human V1a receptor, the IC50 stood at 0.00215 µM and the “ratio IC50 hV2/hV1a” value worked out at 44.0. In addition, the IC50 at human V2 receptor was determined as 0.0945 µM.

Consider `NNC(=O)c1nc(Cn2nc(-c3ccc(Cl)cc3)n(C[C@H](O)C(F)(F)F)c2=O)nn1-c1ncccc1OC(F)(F)F` [Example 11, 3-({3-(4-Chlorophenyl)-5-oxo-4-[(2S)-3,3,3-trifluoro-2-hydroxypropyl]-4,5-dihydro-1H-1,2,4-triazol-1-yl}methyl)-1-[3-(trifluoromethoxy)pyridin-2-yl]-1H-1,2,4-triazole-5-carbohydrazide], for which the IC50 came to 0.0091 µM at human V1a receptor and 1.64 µM on human V2 receptor. Besides, the “ratio IC50 hV2/hV1a” value on human V1a receptor came out at 180.2.

`O=C(c1nc(Cn2nc(-c3ccc(Cl)cc3)n(C[C@H](O)C(F)(F)F)c2=O)nn1-c1ccccc1Cl)N1CC(O)(C(F)(F)F)C1` [Example 12, 5-(4-Chlorophenyl)-2-{[1-(2-chlorophenyl)-5-{[3-hydroxy-3-(trifluoromethyl)azetidin-1-yl]carbonyl}-1H-1,2,4-triazol-3-yl]methyl}-4-[(2S)-3,3,3-trifluoro-2-hydroxypropyl]-2,4-dihydro-3H-1,2,4-triazol-3-one]: on human V1a receptor, the IC50 is 0.00119 µM and the “ratio IC50 hV2/hV1a” value was found to be 18.7. The IC50 at human V2 receptor came out at 0.0222 µM.

For `CC(C)(O)CNC(=O)c1nc(Cn2nc(-c3ccc(Cl)cc3)n(C[C@H](O)C(F)(F)F)c2=O)nn1-c1cccnc1Cl` [Example 15, 3-({3-(4-Chlorophenyl)-5-oxo-4-[(2S)-3,3,3-trifluoro-2-hydroxypropyl]-4,5-dihydro-1H-1,2,4-triazol-1-yl}methyl)-1-(2-chloropyridin-3-yl)-N-(2-hydroxy-2-methylpropyl)-1H-1,2,4-triazole-5-carboxamide], the IC50 on human V1a receptor was found to be 0.013 µM; at human V2 receptor it was 0.183 µM.

In the case of `O=C(NCC(F)(F)F)c1nc(Cn2nc(-c3ccc(Cl)cc3)n(C[C@H](O)C(F)(F)F)c2=O)nn1-c1ncccc1Br` [Example 16, 1-(3-Bromopyridin-2-yl)-3-({3-(4-chlorophenyl)-5-oxo-4-[(2S)-3,3,3-trifluoro-2-hydroxypropyl]-4,5-dihydro-1H-1,2,4-triazol-1-yl}methyl)-N-(2,2,2-trifluoroethyl)-1H-1,2,4-triazole-5-carboxamide], at human V1a receptor, the IC50 is 0.00123 µM and the “ratio IC50 hV2/hV1a” value was 33.1. Also, the concentration for half-maximal inhibition (IC50) at human V2 receptor came to 0.0407 µM.

With `O=C(NCC(F)(F)F)c1nc(Cn2nc(-c3ccc(Cl)cc3)n(C[C@H](O)C(F)(F)F)c2=O)nn1-c1ncccc1Cl` [Example 17, 3-({3-(4-Chlorophenyl)-5-oxo-4-[(2S)-3,3,3-trifluoro-2-hydroxypropyl]-4,5-dihydro-1H-1,2,4-triazol-1-yl}methyl)-1-(3-chloropyridin-2-yl)-N-(2,2,2-trifluoroethyl)-1H-1,2,4-triazole-5-carboxamide], the IC50 at human V1a receptor turned out to be 0.00071 µM; at human V2 receptor, 0.0283 µM. At human V1a receptor, the “ratio IC50 hV2/hV1a” value was determined as 40.2.

With `O=C(NCC(F)(F)F)c1nc(Cn2nc(-c3ccc(Cl)cc3)n(C[C@H](O)C(F)(F)F)c2=O)nn1-c1cccnc1Cl` [Example 18, 3-({3-(4-Chlorophenyl)-5-oxo-4-[(2S)-3,3,3-trifluoro-2-hydroxypropyl]-4,5-dihydro-1H-1,2,4-triazol-1-yl}methyl)-1-(2-chloropyridin-3-yl)-N-(2,2,2-trifluoroethyl)-1H-1,2,4-triazole-5-carboxamide], on human V1a receptor, the IC50 is 0.0135 µM and the “ratio IC50 hV2/hV1a” value was 4.7. In addition, at human V2 receptor, the IC50 was determined as 0.064 µM.

As for `O=C(NCC(F)(F)F)c1nc(Cn2nc(-c3ccc(Cl)cc3)n(C[C@H](O)C(F)(F)F)c2=O)nn1-c1cnccc1Cl` [Example 19, 3-({3-(4-Chlorophenyl)-5-oxo-4-[(2S)-3,3,3-trifluoro-2-hydroxypropyl]-4,5-dihydro-1H-1,2,4-triazol-1-yl}methyl)-1-(4-chloropyridin-3-yl)-N-(2,2,2-trifluoroethyl)-1H-1,2,4-triazole-5-carboxamide], the concentration for half-maximal inhibition (IC50) on human V1a receptor turned out to be 0.00047 µM; at human V2 receptor, 0.0215 µM. Also, on human V1a receptor, the “ratio IC50 hV2/hV1a” value was 45.7.

On to `COc1cccnc1-n1nc(Cn2nc(-c3ccc(Cl)cc3)n(C[C@H](O)C(F)(F)F)c2=O)nc1C(=O)NCC(C)(C)N` [Example 20, N-(2-Amino-2-methylpropyl)-3-({3-(4-chlorophenyl)-5-oxo-4-[(2S)-3,3,3-trifluoro-2-hydroxypropyl]-4,5-dihydro-1H-1,2,4-triazol-1-yl}methyl)-1-(3-methoxypyridin-2-yl)-1H-1,2,4-triazole-5-carboxamide], for which, on human V1a receptor, the IC50 was 0.00695 µM and the “ratio IC50 hV2/hV1a” value was found to be 14.9. Moreover, the half-inhibitory concentration (IC50) at human V2 receptor amounted to 0.104 µM.

For the compound `CNC(=O)c1nc(Cn2nc(-c3ccc(Cl)cc3)n(C[C@H](O)C(F)(F)F)c2=O)nn1-c1ncccc1OC` [Example 21, 3-({3-(4-Chlorophenyl)-5-oxo-4-[(2S)-3,3,3-trifluoro-2-hydroxypropyl]-4,5-dihydro-1H-1,2,4-triazol-1-yl}methyl)-1-(3-methoxypyridin-2-yl)-N-methyl-1H-1,2,4-triazole-5-carboxamide], the 50% inhibitory concentration (IC50) at human V1a receptor stood at 0.00605 µM; on human V2 receptor it was 0.0225 µM. Besides, the “ratio IC50 hV2/hV1a” value on human V1a receptor was found to be 3.7.

For `O=C(c1nc(Cn2nc(-c3ccc(Cl)cc3)n(C[C@H](O)C(F)(F)F)c2=O)nn1CCC(F)(F)F)N1CCOCC1` [Example 26, 5-(4-Chlorophenyl)-2-{[5-(morpholin-4-ylcarbonyl)-1-(3,3,3-trifluoropropyl)-1H-1,2,4-triazol-3-yl]methyl}-4-[(2S)-3,3,3-trifluoro-2-hydroxypropyl]-2,4-dihydro-3H-1,2,4-triazol-3-one], the IC50 was found to be 0.075 µM at human V1a receptor and 0.73 µM on human V2 receptor.

With `CC(C)(C)NC(=O)c1nc(Cn2nc(-c3ccc(Cl)cc3)n(C[C@H](O)C(F)(F)F)c2=O)nn1-c1ncccc1Cl` [Example 27, N-tert-Butyl-3-({3-(4-chlorophenyl)-5-oxo-4-[(2S)-3,3,3-trifluoro-2-hydroxypropyl]-4,5-dihydro-1H-1,2,4-triazol-1-yl}methyl)-1-(3-chloropyridin-2-yl)-1H-1,2,4-triazole-5-carboxamide], the concentration for half-maximal inhibition (IC50) at human V1a receptor amounted to 0.00415 µM; on human V2 receptor it was 0.106 µM. Besides, the “ratio IC50 hV2/hV1a” value on human V1a receptor is 25.5.

Usually IC50 stands for the point on the concentration scale where inhibition reaches its midpoint.
